Columns and labels:
Assay in all cases: relative viability (nuclei count vs DMSO), 5 days (fraction); higher = more cells survive
[1] = compound: C1CC(C1)(C(=O)O)C(=O)O.[NH2-].[NH2-].[Pt+2] [Carboplatin] + COc1cccc2cc(-c3nc([C@H]4CC[C@H](C(=O)O)CC4)n4ncnc(N)c34)[nH]c12 [OSI-027] (partner 0.5 µM)
How it was run: (§1)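 Values are medians from duplicate plates. Each reflects relative viability, defined as the nuclei count of treated wells over that of vehicle wells. Lung cancer cell lines in 1536-well plates were pin-tool dosed one day after seeding with one drug alone or with a fixed anchor-drug dose plus five library-drug doses (not always all listed) in √10 steps, then fixed, stained and imaged at 4× after 5 days.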

[2] = compound: C1CC(C1)(C(=O)O)C(=O)O.[NH2-].[NH2-].[Pt+2] [Carboplatin] + O=C(CCCCCCC(=O)Nc1ccccc1)NO [Vorinostat] (partner 1 µM)
How it was run: as §1

[3] = compound: CC[C@H](C)N1C=C(C2=C(C=C(C=C21)C3=CN=C(C=C3)N4CCNCC4)C(=O)NCC5=C(C=C(NC5=O)C)C)C [GSK126] + COc1cccc2cc(-c3nc([C@H]4CC[C@H](C(=O)O)CC4)n4ncnc(N)c34)[nH]c12 [OSI-027] (partner 0.5 µM)
How it was run: as §1

[4] = compound: NS(=O)(=O)OC[C@@H]1C[C@@H](n2ccc3c(N[C@H]4CCc5ccccc54)ncnc32)C[C@@H]1O [MLN4924] + Cc1nc(NC(=O)N2CCC[C@H]2C(N)=O)sc1-c1ccnc(C(C)(C)C(F)(F)F)c1 [Alpelisib] (partner 2 µM)
How it was run: as §1

| Cell Line | relative viability ([1]; first compound 0.08 µM) | relative viability ([1]; first compound 0.253 µM) | relative viability ([1]; first compound 0.8 µM) | relative viability ([1]; first compound 2.53 µM) | relative viability ([1]; first compound 8 µM) | relative viability ([2]; first compound 0.08 µM) | relative viability ([2]; first compound 0.253 µM) | relative viability ([2]; first compound 0.8 µM) | relative viability ([2]; first compound 2.53 µM) | relative viability ([2]; first compound 8 µM) | relative viability ([3]; first compound 0.08 µM) | relative viability ([3]; first compound 0.253 µM) | relative viability ([3]; first compound 0.8 µM) | relative viability ([3]; first compound 2.53 µM) | relative viability ([3]; first compound 8 µM) | relative viability ([4]; first compound 0.04 µM) | relative viability ([4]; first compound 0.1265 µM) | relative viability ([4]; first compound 0.4 µM) | relative viability ([4]; first compound 1.265 µM) | relative viability ([4]; first compound 4 µM) |
| --- | --- | --- | --- | --- | --- | --- | --- | --- | --- | --- | --- | --- | --- | --- | --- | --- | --- | --- | --- | --- |
| NCI-H2405 | 0.683 | 0.624 | 0.624 | 0.642 | 0.56 | 1.19 | 0.983 | 1.12 | 1.11 | 0.767 | 0.602 | 0.633 | 0.611 | 0.622 | 0.662 | 1.02 | 0.933 | 0.517 | 0.196 | 0.215 |
| SK-MES-1 | 0.684 | 0.609 | 0.699 | 0.628 | 0.553 | 1.19 | 1.06 | 1.08 | 1.01 | 0.961 | 0.626 | 0.649 | 0.637 | 0.654 | 0.712 | 0.99 | 0.882 | 0.87 | 0.232 | 0.185 |
| NCI-H2170 | 0.715 | 0.723 | 0.86 | 0.783 | 0.605 | 0.94 | 0.811 | 0.89 | 0.737 | 0.413 | 0.809 | 0.817 | 0.712 | 0.749 | 0.737 | 0.906 | 0.555 | 0.457 | 0.169 | 0.171 |
| NCI-H322M | 0.544 | 0.503 | 0.599 | 0.506 | 0.408 | 0.994 | 0.855 | 0.928 | 0.91 | 0.709 | 0.544 | 0.571 | 0.56 | 0.565 | 0.62 | 0.783 | 0.786 | 0.713 | 0.259 | 0.321 |

From the supplement of paper PMC10307832
